Results as given in US20250171821A1, “HIF-1 ACTIVATORS AND USES THEREOF” (Ramot at Tel-Aviv University Ltd., priority 2022, published 2025).
Entries after “also recorded” stand apart in the source; their conditions may differ.

Key:
ischemic anastomoses = details: cited from earlier work
mice = details: after dextran sulfate sodium-induced intestinal fibrosis; cited from earlier work
Bovine Dermal Fibroblast = assay: Collagen-I immunofluorescence in bovine dermal fibroblasts; assay type: cell-based; details: 48 hours
Description: For microscopy images, cells were cultured in a 24-well plate and incubated with medium supplemented with the indicated concentrations of the treating entity (e.g., peptides or DFO) at 37° C. under 5% CO2. Cells were then washed additional three times with cold phosphate-buffered saline (PBS), following a 20 minute fixation in a 4% paraformaldehyde (PFA) in PBS and extensively washed three times with PBS to remove the PFA, followed by a 20 minute wash with blocking and penetration solution (PBS with 0.1% Triton X-100 and 2% BSA). Fixed cells were incubated with antibodies for 1 hour at 25° C., washed, and developed together with fluorescence-tagged secondary antibodies (Alexa 488 and 647, Abcam). Cell nuclei were stained with 1 mg/mL 4′,6-diamidino-2-phenylindole (DAPI Staining Solution ab228549, Abcam). Images were taken using a ZEISS LSM 900 in confocal mode, using Zen 3.1. Fluorescence readouts were obtained at ex/em of 358/461, 495/519 nm, and 652/668 nm for blue, green, and red, respectively.
Effect of Def16-EPAS1 on Collagen accumulation in Bovine Dermal Fibroblast—To test HIF mimicking peptide and its effect on Collagen accumulation in additional mammalian cells, the present inventors have examined the effect of the Def16-EPAS1 peptide on Bovine Dermal Fibroblast. […]

MG-63 cells [1] = assay: Picrosirius red staining of collagen fibers in MG-63 cells; assay type: cell-based, human; details: 7 days, osteogenic differentiation medium plus peptide
Description: (§1) The cultivation of MG-63 was performed in α-MEM growth medium (Sartorius). Osteogenic differentiation was performed by plating 20,000 cells/well into a sterile 24-well plate. Cells were left to adhere for 1 day and then switched to the osteogenic medium consisting of a minimum essential medium alpha (α-MEM) supplemented with 10% heat-inactivated FBS, 2 mM L-glutamine, 100 U/mL penicillin, 100 μg/mL streptomycin, 50 μM ascorbate-2-phosphate, and 10 mM β-glycerophosphate. Medium was changed every 2-3 days together with peptide supplementation. Seven to twenty-eight days after induction of differentiation, the production of extracellular calcified mineral matrix was visualized by Alizarin Red staining (Sigma) and Picrosirius Red (Scytek).
To visualize the extent of ECM formation, Picrosirius red dye was used to stain Collagen-I and Collagen-III. Treated cells were fixed with 4% PFA, washed with PBS and dried at 37° C. or at room temperature (RT) for overnight incubation. Then, the cells were stained with 400 μL of Sirius Red dye (0.1% in saturated picric acid) for 1 hour with mild shaking. The stained cell layers were then extensively washed with 0.01 N HCl to remove all non-bounded dye. After rinsing, photographs were taken under confocal microscope using polarized light.
Evaluation of Collagen fibers in MG-63 cells upon Def16-EPAS1 treatment—To evaluate the variation in Collagen fiber levels between normal MG-63 cells and MG-63 cells treated with the Def16-EPAS1 peptide, cells were supplemented to a 7-day incubation period with osteogenic differentiation medium (which includes 50 μg/mL ascorbic acid and 10 mM β-glycerophosphate), along with the addition of Def16-EPAS1 peptide. Collagen fibers were highlighted/stained by Picro-Sirius Red staining according to the manufacturer's instructions (FIG. 12). The PSR staining allows to clearly distinguish between Collagen-I and III fibers in cell culture. In the evaluation of polarizing colors of collagens fibers, Collagen-I and III were polarized with 488 nm and 647 nm wavelength, respectively, and visualized with the confocal microscope.

MG-63 cells [2] = assay: Alizarin Red S staining of mineralization in MG-63 cells; assay type: cell-based, human
Description: as §1
To visualize calcium deposition upon osteogenic differentiation, an Alizarin-red-S (Sigma) stock solution of 40 mM was used. Cells were washed three times with PBS and fixed in 1 mL of 4% PFA for 20 minutes at room temperature (RT). After fixation, cells were rinsed with double distilled water (DDW) and stained for 10 minutes in 1 mL Alizarin-red-S stock solution under continuous rotation. To diminish unspecific staining, cells were washed extensively three times with PBS. Stained samples were stored at 4° C. covered with PBS. […]

COC(=O)CNC(=O)C(=O)OC [DMOG]
levels of collagen (ischemic anastomoses): increased levels of collagen | collagen deposition (mice): significant decrease in collagen deposition

Def16-EPAS1: GRCRGFRRRCFCTTHCELDLETLAPYIPMDGEDFQL (SEQ ID NO: 3): Def16 cell penetrating sequence fused to the EPAS1 peptide (Def16-EPAS1; MOD_RES 1 Can be FITC-labeled; MOD_RES 3 Can be FITC-labeled; MOD_RES 10 Can be FITC-labeled; MOD_RES 12 Can be FITC-labeled; MOD_RES 16..17 Can be FITC-labeled; MOD_RES 19 Can be FITC-labeled; MOD_RES 21 Can be FITC-labeled; MOD_RES 30 Can be FITC-labeled; MOD_RES 32..33 Can be FITC-labeled; MOD_RES 36 Can be FITC-labeled)
Collagen fibril morphology (Bovine Dermal Fibroblast; higher peptide concentrations): thick fibril bundles of Collagen were observed | Collagen-I levels compared to baseline of nontreated cells (Bovine Dermal Fibroblast; peptide concentration above 10 μM): more than 2 fold | Collagen-I fibers (MG-63 cells [1]): over-production | Collagen-III fibers (MG-63 cells [1]): over-production | Collagen-I fibers (MG-63 cells [1]; listed as DEF16-EPAS1): enhanced levels | Collagen-III fibers (MG-63 cells [1]; listed as DEF16-EPAS1): enhanced levels | deposition of calcium (mineralized nodules) (MG-63 cells [2]; 5 μM or 20 μM peptide, 7 days, osteogenic differentiation medium): strong induction of deposition of calcium; also recorded: Typical mineralized nodules were observed | mineralizing matrix formation (Alizarin Red S and Picrosirius Red) (MG-63 cells [2]; 10 μM peptide, 7, 14, 21 and 28 days, differentiation medium): form a mineralizing matrix
